According to ChEMBL document CHEMBL1795319, “Design, synthesis and antifungal evaluation of 1-(2-(2,4-difluorophenyl)-2-hydroxy-3-(1H-1,2,4-triazol-1-yl)propyl)-1H-1,2,4-triazol-5(4H)-one” (2011):
≈ marks a conversion by molar mass, not a printed value.

What was measured:
Assay type in all cases: functional
Candida albicans [1] = test: Antifungal activity against Candida albicans SC5314 after 24 hrs by micro-broth dilution method; conditions: SC5314, 24 h
Candida albicans [2] = test: Antifungal activity against Candida albicans Y0109 after 24 hrs by micro-broth dilution method; conditions: Y0109, 24 h
Candida tropicalis = test: Antifungal activity against Candida tropicalis by micro-broth dilution method
Candida parapsilosis = test: Antifungal activity against Candida parapsilosis by micro-broth dilution method; conditions: Lodderomyces parapsilosis
Kluyveromyces marxianus = test: Antifungal activity against Candida kefyr by micro-broth dilution method
Cryptococcus neoformans = test: Antifungal activity against Cryptococcus neoformans BLS108 after 72 hrs by micro-broth dilution method; conditions: BLS108, 72 h
Trichophyton rubrum = test: Antifungal activity against Trichophyton rubrum by micro-broth dilution method
Aspergillus fumigatus = test: Antifungal activity against Aspergillus fumigatus by broth microdilution method

Structure (SMILES) | MIC80 (Candida albicans [1]) | MIC80 (Candida albicans [2]) | MIC80 (Candida tropicalis) | MIC80 (Candida parapsilosis) | MIC80 (Kluyveromyces marxianus) | MIC80 (Cryptococcus neoformans) | MIC80 (Trichophyton rubrum) | MIC80 (Aspergillus fumigatus)
O=c1n(-c2ccc([N+](=O)[O-])cc2)cnn1CC(O)(Cn1cncn1)c1ccc(F)cc1F (racemic) | 1 µg/mL (≈ 2.26 µM) | 1 µg/mL (≈ 2.26 µM) | 0.25 µg/mL (≈ 0.564 µM) | 16 µg/mL (≈ 36.1 µM) | 0.25 µg/mL (≈ 0.564 µM) | 64 µg/mL (≈ 144 µM) | 16 µg/mL (≈ 36.1 µM) | > 64 µg/mL
O=c1n(-c2nccs2)cnn1CC(O)(Cn1cncn1)c1ccc(F)cc1F (racemic) | 0.25 µg/mL (≈ 0.617 µM) | 1 µg/mL (≈ 2.47 µM) | 1 µg/mL (≈ 2.47 µM) | 0.25 µg/mL (≈ 0.617 µM) | 1 µg/mL (≈ 2.47 µM) | 64 µg/mL (≈ 158 µM) | 16 µg/mL (≈ 39.5 µM) | > 64 µg/mL
O=c1n(-c2nc(-c3ccc(Cl)cc3Cl)cs2)cnn1CC(O)(Cn1cncn1)c1ccc(F)cc1F (racemic) | 16 µg/mL (≈ 29.1 µM) | 16 µg/mL (≈ 29.1 µM) | 16 µg/mL (≈ 29.1 µM) | 64 µg/mL (≈ 116 µM) | 4 µg/mL (≈ 7.27 µM) | 64 µg/mL (≈ 116 µM) | 64 µg/mL (≈ 116 µM) | > 64 µg/mL
Cc1ccc(-n2cnn(CC(O)(Cn3cncn3)c3ccc(F)cc3F)c2=O)nc1 (racemic) | 4 µg/mL (≈ 9.68 µM) | 4 µg/mL (≈ 9.68 µM) | 64 µg/mL (≈ 155 µM) | 4 µg/mL (≈ 9.68 µM) | 4 µg/mL (≈ 9.68 µM) | 16 µg/mL (≈ 38.7 µM) | 16 µg/mL (≈ 38.7 µM) | > 64 µg/mL
Cc1ccnc(-n2cnn(CC(O)(Cn3cncn3)c3ccc(F)cc3F)c2=O)c1 (racemic) | 0.00024 µg/mL (≈ 0.000581 µM) | 0.00024 µg/mL (≈ 0.000581 µM) | 0.00024 µg/mL (≈ 0.000581 µM) | 0.00024 µg/mL (≈ 0.000581 µM) | 0.0625 µg/mL (≈ 0.151 µM) | 0.00024 µg/mL (≈ 0.000581 µM) | 64 µg/mL (≈ 155 µM) | > 64 µg/mL
CC(=O)Nc1ccc(-n2cnn(CC(O)(Cn3cncn3)c3ccc(F)cc3F)c2=O)cc1 (racemic) | 16 µg/mL (≈ 35.1 µM) | 4 µg/mL (≈ 8.78 µM) | 16 µg/mL (≈ 35.1 µM) | 16 µg/mL (≈ 35.1 µM) | > 64 µg/mL | > 64 µg/mL | > 64 µg/mL | > 64 µg/mL
CCC(=O)Nc1ccc(-n2cnn(CC(O)(Cn3cncn3)c3ccc(F)cc3F)c2=O)cc1 (racemic) | 1 µg/mL (≈ 2.13 µM) | 4 µg/mL (≈ 8.52 µM) | 16 µg/mL (≈ 34.1 µM) | 4 µg/mL (≈ 8.52 µM) | 64 µg/mL (≈ 136 µM) | > 64 µg/mL | > 64 µg/mL | > 64 µg/mL
CCCC(=O)Nc1ccc(-n2cnn(CC(O)(Cn3cncn3)c3ccc(F)cc3F)c2=O)cc1 (racemic) | 4 µg/mL (≈ 8.27 µM) | 4 µg/mL (≈ 8.27 µM) | 4 µg/mL (≈ 8.27 µM) | 4 µg/mL (≈ 8.27 µM) | 16 µg/mL (≈ 33.1 µM) | > 64 µg/mL | > 64 µg/mL | > 64 µg/mL
CCCCC(=O)Nc1ccc(-n2cnn(CC(O)(Cn3cncn3)c3ccc(F)cc3F)c2=O)cc1 (racemic) | 0.00097 µg/mL (≈ 0.00195 µM) | 0.00024 µg/mL (≈ 0.000482 µM) | 0.0625 µg/mL (≈ 0.126 µM) | 0.00024 µg/mL (≈ 0.000482 µM) | 64 µg/mL (≈ 129 µM) | 0.0625 µg/mL (≈ 0.126 µM) | > 64 µg/mL | > 64 µg/mL
CCCCCC(=O)Nc1ccc(-n2cnn(CC(O)(Cn3cncn3)c3ccc(F)cc3F)c2=O)cc1 (racemic) | 0.00097 µg/mL (≈ 0.0019 µM) | 0.00024 µg/mL (≈ 0.000469 µM) | 0.00097 µg/mL (≈ 0.0019 µM) | 0.00024 µg/mL (≈ 0.000469 µM) | 4 µg/mL (≈ 7.82 µM) | 0.0625 µg/mL (≈ 0.122 µM) | 64 µg/mL (≈ 125 µM) | > 64 µg/mL
CCCCCCC(=O)Nc1ccc(-n2cnn(CC(O)(Cn3cncn3)c3ccc(F)cc3F)c2=O)cc1 (racemic) | 0.0039 µg/mL (≈ 0.00742 µM) | 0.0625 µg/mL (≈ 0.119 µM) | 64 µg/mL (≈ 122 µM) | 1 µg/mL (≈ 1.9 µM) | 1 µg/mL (≈ 1.9 µM) | 0.0625 µg/mL (≈ 0.119 µM) | 64 µg/mL (≈ 122 µM) | > 64 µg/mL
CCCCCCCC(=O)Nc1ccc(-n2cnn(CC(O)(Cn3cncn3)c3ccc(F)cc3F)c2=O)cc1 (racemic) | 4 µg/mL (≈ 7.41 µM) | 16 µg/mL (≈ 29.7 µM) | 64 µg/mL (≈ 119 µM) | 64 µg/mL (≈ 119 µM) | > 64 µg/mL | > 64 µg/mL | > 64 µg/mL | > 64 µg/mL
N#CCC(=O)Nc1ccc(-n2cnn(CC(O)(Cn3cncn3)c3ccc(F)cc3F)c2=O)cc1 (racemic) | 0.25 µg/mL (≈ 0.52 µM) | 1 µg/mL (≈ 2.08 µM) | 1 µg/mL (≈ 2.08 µM) | 1 µg/mL (≈ 2.08 µM) | > 64 µg/mL | > 64 µg/mL | 16 µg/mL (≈ 33.3 µM) | > 64 µg/mL
O=C(Nc1ccc(-n2cnn(CC(O)(Cn3cncn3)c3ccc(F)cc3F)c2=O)cc1)C1CC1 (racemic) | 0.0625 µg/mL (≈ 0.13 µM) | 0.0625 µg/mL (≈ 0.13 µM) | 1 µg/mL (≈ 2.08 µM) | 0.25 µg/mL (≈ 0.519 µM) | > 64 µg/mL | > 64 µg/mL | > 64 µg/mL | > 64 µg/mL
O=C(Nc1ccc(-n2cnn(CC(O)(Cn3cncn3)c3ccc(F)cc3F)c2=O)cc1)C1CCCCC1 (racemic) | > 64 µg/mL | > 64 µg/mL | > 64 µg/mL | > 64 µg/mL | > 64 µg/mL | > 64 µg/mL | 16 µg/mL (≈ 30.6 µM) | > 64 µg/mL
O=C(Nc1ccc(-n2cnn(CC(O)(Cn3cncn3)c3ccc(F)cc3F)c2=O)cc1)c1cccnc1 (racemic) | 1 µg/mL (≈ 1.93 µM) | 1 µg/mL (≈ 1.93 µM) | 4 µg/mL (≈ 7.71 µM) | 1 µg/mL (≈ 1.93 µM) | 16 µg/mL (≈ 30.9 µM) | 64 µg/mL (≈ 123 µM) | 64 µg/mL (≈ 123 µM) | > 64 µg/mL
O=C(Nc1ccc(-n2cnn(CC(O)(Cn3cncn3)c3ccc(F)cc3F)c2=O)cc1)c1ccccn1 (racemic) | 1 µg/mL (≈ 1.93 µM) | 4 µg/mL (≈ 7.71 µM) | > 64 µg/mL | 4 µg/mL (≈ 7.71 µM) | 16 µg/mL (≈ 30.9 µM) | > 64 µg/mL | > 64 µg/mL | > 64 µg/mL
O=C(Nc1ccc(-n2cnn(CC(O)(Cn3cncn3)c3ccc(F)cc3F)c2=O)cc1)c1ccco1 (racemic) | 0.25 µg/mL (≈ 0.493 µM) | 0.25 µg/mL (≈ 0.493 µM) | 1 µg/mL (≈ 1.97 µM) | 0.0625 µg/mL (≈ 0.123 µM) | 4 µg/mL (≈ 7.88 µM) | 16 µg/mL (≈ 31.5 µM) | > 64 µg/mL | > 64 µg/mL
O=C(Nc1ccc(-n2cnn(CC(O)(Cn3cncn3)c3ccc(F)cc3F)c2=O)cc1)c1cccs1 (racemic) | 0.25 µg/mL (≈ 0.478 µM) | 1 µg/mL (≈ 1.91 µM) | 16 µg/mL (≈ 30.6 µM) | 4 µg/mL (≈ 7.64 µM) | > 64 µg/mL | > 64 µg/mL | > 64 µg/mL | > 64 µg/mL
C[C@@H]1[C@H](O)[C@@H](C)/C=C/C=C/C=C/C=C/C=C/C=C/C=C/[C@H](O[C@@H]2O[C@H](C)[C@@H](O)[C@H](N)[C@@H]2O)C[C@@H]2O[C@](O)(C[C@@H](O)C[C@@H](O)[C@H](O)CC[C@@H](O)C[C@@H](O)CC(=O)O[C@H]1C)C[C@H](O)[C@H]2C(=O)O [AMPHOTERICIN B] | 0.25 µg/mL (≈ 0.271 µM) | 0.25 µg/mL (≈ 0.271 µM) | 1 µg/mL (≈ 1.08 µM) | 0.25 µg/mL (≈ 0.271 µM) | 0.25 µg/mL (≈ 0.271 µM) | 1 µg/mL (≈ 1.08 µM) | 4 µg/mL (≈ 4.33 µM) | 1 µg/mL (≈ 1.08 µM)
OC(Cn1cncn1)(Cn1cncn1)c1ccc(F)cc1F [FLUCONAZOLE] | 0.25 µg/mL (≈ 0.816 µM) | 0.25 µg/mL (≈ 0.816 µM) | 1 µg/mL (≈ 3.27 µM) | 0.25 µg/mL (≈ 0.816 µM) | 4 µg/mL (≈ 13.1 µM) | 1 µg/mL (≈ 3.27 µM) | 1 µg/mL (≈ 3.27 µM) | > 64 µg/mL
CCC(C)n1ncn(-c2ccc(N3CCN(c4ccc(OCC5COC(Cn6cncn6)(c6ccc(Cl)cc6Cl)O5)cc4)CC3)cc2)c1=O (centres undefined) [ITRACONAZOLE] | 0.0625 µg/mL (≈ 0.0886 µM) | 0.0625 µg/mL (≈ 0.0886 µM) | 0.0625 µg/mL (≈ 0.0886 µM) | 0.0625 µg/mL (≈ 0.0886 µM) | 0.0625 µg/mL (≈ 0.0886 µM) | 0.0625 µg/mL (≈ 0.0886 µM) | 0.0625 µg/mL (≈ 0.0886 µM) | 0.0625 µg/mL (≈ 0.0886 µM)
C[C@@H](c1ncncc1F)[C@](O)(Cn1cncn1)c1ccc(F)cc1F [VORICONAZOLE] | 0.0039 µg/mL (≈ 0.0112 µM) | 0.0039 µg/mL (≈ 0.0112 µM) | 0.0039 µg/mL (≈ 0.0112 µM) | 0.0039 µg/mL (≈ 0.0112 µM) | 0.0039 µg/mL (≈ 0.0112 µM) | 0.0039 µg/mL (≈ 0.0112 µM) | 0.0156 µg/mL (≈ 0.0447 µM) | 0.0039 µg/mL (≈ 0.0112 µM)
